Data published in article PMC6104039 (Nature Communications, 2018).

Columns and labels:
Type in all cases: biochemical
[1] = target: T1, murine CerS5 (Mus musculus, UniProt Q9D6K9); test: Ceramide synthase assay, NBD-dihydrosphingosine, C16:0-CoA; COS cells expressing murine CerS5; settings: inhibitor range 10 nM–100 μM; read-out: IC50 mCerS5
T1 construct: expressed in transfected cells; host or cells: COS cells (lentiviral infection)
T1 sequence (Q9D6K9 1-414): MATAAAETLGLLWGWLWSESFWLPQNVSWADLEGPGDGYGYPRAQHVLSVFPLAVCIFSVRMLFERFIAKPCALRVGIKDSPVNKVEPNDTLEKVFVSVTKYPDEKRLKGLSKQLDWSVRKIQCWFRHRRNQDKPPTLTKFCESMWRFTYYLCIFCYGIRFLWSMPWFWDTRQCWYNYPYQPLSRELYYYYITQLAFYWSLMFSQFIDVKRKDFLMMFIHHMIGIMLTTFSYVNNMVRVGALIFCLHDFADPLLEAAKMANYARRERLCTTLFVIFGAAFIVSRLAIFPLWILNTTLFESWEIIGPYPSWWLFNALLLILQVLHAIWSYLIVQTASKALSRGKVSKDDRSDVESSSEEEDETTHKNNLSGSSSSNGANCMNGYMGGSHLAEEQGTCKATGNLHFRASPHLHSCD
Description: (§1) Ceramide synthase assays were carried out using an HPLC-based assay with a fluorescent NBD-dihydrosphingosine substrate. All cell lines used for these assays were originally sourced from ATCC. […] Human CerS expression plasmids (pCMV6 plasmids from Origene) were transfected using FuGene-6 transfection reagent, and cells were harvested 24 h after transfection in 20 mM Hepes pH 7.4, 10 mM KCl, 1 mM dithiothreitol, 3 mM β-glycerophosphate, and EDTA-free complete protease inhibitor cocktail (Roche). Cells were sonicated in a Diagenode Bioruptor sonicating bath for 5 min, after which cell extracts were cleared by centrifugation at 800 × g for 10 min. Protein concentration in the supernatant was assayed using the bicinchoninic acid (BCA) assay, and the supernatant stored at −80 °C. COS cells were infected with lentiviral constructs expressing murine CerS1, 2, or 5, then homogenised as described above.
(§2) The reaction buffer consisted of 20 mM Hepes pH 7.4, 25 mM KCl, 2 mM MgCl2, 0.5 mM dithiothreitol, 0.1% fatty acid free BSA, 10 μM NBD-dihydrosphingosine and 50 μM fatty acid free BSA. C18:0-CoA was used as the fatty acyl substrate for CerS1 and CerS4; C24:1-CoA for CerS2; and C16:0-CoA for CerS5 and CerS6. All reactions were run in triplicate. Test inhibitors were added, after which reactions were started with the addition of 2.5–25 μg lysate protein (optimised depending on the particular CerS isoform being assayed). Assays were run for 30 min at 37 °C, and stopped with the addition of 200 μL methanol. The reaction mixture was transferred to a glass HPLC vial with 300 μL fused glass insert (Thermo Fisher Scientific) and NBD-dihydroceramide reaction products were analysed on a Thermo Scientific Surveyor HPLC connected to a Shimadzu RF-10AXL fluorescent detector (set to gain of 3). […] Data was acquired over a 12 min chromatography run using: solvent A, 0.2% formic acid, 2 mM ammonium formate in water; solvent B, 0.2% formic acid, 1 mM ammonium formate in methanol. The gradient started at 20:80 A/B, increasing to 5:95 A/B over 2 min, then to 100% B over 6 min. The gradient was then held at 100% B for 2 min, before re-equilibration to 20:80 A/B for a further 2 min. Peak areas were integrated using Xcalibur software (Thermo Fisher Scientific).

[2] = target: T2, human CerS6 (Homo sapiens, UniProt Q6ZMG9); test: Ceramide synthase assay, NBD-dihydrosphingosine, C16:0-CoA; HEK293 cells expressing human CerS6; settings: inhibitor range 10 nM–100 μM; read-out: IC50 hCerS6
T2 construct: host or cells: HEK293
T2 sequence (Q6ZMG9 1-384): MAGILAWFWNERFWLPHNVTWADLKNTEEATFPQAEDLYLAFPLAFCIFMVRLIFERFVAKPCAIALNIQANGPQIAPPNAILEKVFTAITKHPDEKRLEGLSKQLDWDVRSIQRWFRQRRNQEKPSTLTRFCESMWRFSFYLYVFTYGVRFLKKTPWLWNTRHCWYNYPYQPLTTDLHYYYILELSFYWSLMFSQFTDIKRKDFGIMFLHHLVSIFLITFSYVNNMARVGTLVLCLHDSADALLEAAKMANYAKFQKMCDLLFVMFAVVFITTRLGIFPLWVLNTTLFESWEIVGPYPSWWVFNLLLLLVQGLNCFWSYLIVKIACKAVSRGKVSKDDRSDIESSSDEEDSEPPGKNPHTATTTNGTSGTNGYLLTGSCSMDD
Description: as §1, §2

[3] = target: T3, human CerS4 (Homo sapiens, UniProt Q9HA82); test: Ceramide synthase assay, NBD-dihydrosphingosine, C18:0-CoA; U251 cells expressing human CerS4; settings: inhibitor range 10 nM–100 μM; read-out: IC50 hCerS4
T3 construct: host or cells: U251
T3 sequence (Q9HA82 1-394): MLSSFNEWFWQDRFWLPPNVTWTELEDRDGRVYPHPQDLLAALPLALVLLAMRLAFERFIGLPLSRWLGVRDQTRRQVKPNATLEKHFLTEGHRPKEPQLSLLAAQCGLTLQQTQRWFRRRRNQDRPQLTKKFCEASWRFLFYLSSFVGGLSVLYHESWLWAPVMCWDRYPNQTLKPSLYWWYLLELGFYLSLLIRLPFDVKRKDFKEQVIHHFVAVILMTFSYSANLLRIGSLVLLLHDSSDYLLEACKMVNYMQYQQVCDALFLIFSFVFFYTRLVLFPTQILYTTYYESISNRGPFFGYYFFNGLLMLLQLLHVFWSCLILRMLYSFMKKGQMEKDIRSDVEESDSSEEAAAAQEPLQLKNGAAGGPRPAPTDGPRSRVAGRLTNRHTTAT
Description: as §1, §2

| SMILES | IC50 [1] | IC50 [2] | IC50 [3] |
| --- | --- | --- | --- |
| CCCCCCCCc1ccc(CCC(N)(CO)CO)cc1 [FTY720, reference compound] | 15 ± 0.07 µM | 5.8 ± 0.2 µM | 26 ± 0.18 µM |
| C[C@@](N)(CO)CCc1ccc(OCc2ccccc2)cc1 [G024, (2S)-2-amino-4-(4′-benzyloxyphenyl)-2-methyl-1-butanol] | 24.3 ± 0.22 µM | 8.5 ± 0.13 µM | 18 ± 0.12 µM |
| C[C@@](N)(CO)CCc1ccc(OCc2ccc(Cl)c(Cl)c2)cc1 [P053, (S)-2-amino-4-(4-(3,4-dichlorobenzyloxy)phenyl)-2-methylbutan-1-ol] | 7.2 ± 0.1 µM | 11.4 ± 0.17 µM | 17.2 ± 0.09 µM |
| CCCC[C@@H](C)[C@@H](OC(=O)C[C@@H](CC(=O)O)C(=O)O)[C@H](C[C@@H](C)C[C@H](O)CCCC[C@@H](O)C[C@H](O)[C@H](C)N)OC(=O)C[C@@H](CC(=O)O)C(=O)O [FB1, reference compound] | 0.5 ± 0.05 µM | 0.29 ± 0.05 µM | 0.92 ± 0.06 µM |
